Measured values reported in patent EP2966448B1, “METHOD FOR THE PREDICTION OR PROGNOSIS OF THE RESPONSE OF A HUMAN SUBJECT SUFFERING FROM CANCER TO TREATMENT WITH AN ANTAGONIST OF THE NK1 RECEPTOR” (priority 2013, dated 2014).
Like-named read-outs stand apart in the source and are kept apart here.

Assays:
[1] = system: Melanoma (Nodular Melanoma); experiment: Inhibition of primary tumor cell cultures vs Kras mutation (Example 2); format: cell-based, human; conditions: Homo sapiens, 100 micromolar, read-out: Percentage of inhibition of cell cultures
Protocol: (§1) Cell cultures. To obtain tumor cells from human primary tumors we used the method described in De Bari et al. (De Bari et al. 2001). Briefly, small pieces of the tumors were digested into a hyaluronidase solution (Sigma-Aldrich, USA) at a concentration of 1 mg/ml during 15 minutes at 37°C, and then they were treated with 6 mg/ml of collagenase type IV (Invitrogen) during 2 hours at 37°C. Consecutively, cells were washed, and resuspended in the DMEM culture medium with high concentration of glucose (Dulbecco's Modified Eagle's Medium, Invitrogen) supplemented with 1% of antibiotics-antimycotics (Invitrogen) and with 1% of sodium pyruvate (Invitrogen), and the cells were seeded in culture slides at a concentration of 10.000 cells per square centimeter. When cells reached confluence, the adherent cells were separated using sterile trypsin at 0,5% (Invitrogen) and they were used among passages 3 and 9. For the assays shown next, tumor cells were seeded on slides at a concentration of 25.000 cells per well. A total of 6 wells containing the tumor cells were used as survival control. […] All the cultures were kept during 48 hours and later on recollected for their analysis.
(§2) In each case the presence or not of mutations in K-ras gene was determined.
(§3) To determine the existence of mutations in the K-ras gene DNA from cancer tumor cells was extracted from samples obtained from the different cancer tumor cells, using DNA extraction kits from Takara (Madison, WI, US) or Ambion (Huntingdon, Cambridgeshire, United Kingdom), following the manufacturer's instructions, and as it has been previously published (Di Fiore F, et al. 2007). Consecutively it was analyzed by sequencing the exon 2 of the KRAS gene, , by means of PCR amplification from previously extracted cancer tumor DNA, using the following sense primer (SEQ ID NO. 15): 5'-[sequence]-3' and anti-sense primer (SEQ ID NO. 16): 5'-[sequence]-3'. After the purification using the Qiagen extraction kit, the PCR products were sequenced using the Big Dye Terminator Kit V3.1 (Applied Biosystems, Foster City, CA, U.S.) and an ABI Prism 377 or 3100 DNA sequencer (Applied Biosystems). The presence of a heterozygous mutation in the KRAS gene in cancer tumor cells of the cultures was defined as the appearance of a mutant peak of a height of at least a third of the wild type. All the sequence analysis were executed at least twice in two independent PCR.
(§4) The percentages of inhibition are expressed in percentage of variation in relation to control ± standard deviation.

[2] = system: Burkitt Lymphoma; experiment: Inhibition of primary tumor cell cultures (48 hours) vs NK1 receptor immunostaining (Example 1); format: cell-based; conditions: Homo sapiens, 1 micromolar, read-out: Percentage of inhibition of cell cultures
Protocol: as §1
(§5) Immunohistochemistry techniques. The presence of NK1 receptors was also analyzed using immunohistochemistry techniques. Briefly, a sample of each of the cultures of the cell lines used in the present invention, was centrifuged (5 minutes at 1.500 rpm) and the pellet obtained was dehydrated using increasing concentrations of ethanol and, finally, xylol. Then, said dehydrated samples were embedded in paraffin, creating a block of cells. Such paraffin blocks were cut with a microtome at 5 microns thickness, and were placed on microscope slides adequate to perform immunohistochemistry techniques. Consecutively, they were de-paraffinized by immersing them in xylol, to be finally hydrated using a solution containing decreasing concentrations of ethanol, and finally submerged them into water. […] After this, the samples were left to cool down at room temperature for 10 minutes. The endogenous peroxidase activity was blocked with 3% peroxide of hydrogen for 30 minutes at room temperature. After washing the samples with 0.05 M of Tris buffer, they were incubated with 10% non-immune pork serum at for 30 minutes at room temperature. To analyze the expression of NK1 receptors, the cellular samples were incubated in the presence of anti-NK1 antibodies (S8305, Sigma-Aldrich) diluted 1:1000, overnight at 4°C. Afterwards, the samples were washed in Tris buffer 0.05 M at room temperature. The next step was the addition of Envision System-HRP (Dako) reagents for 30 minutes at room temperature. Then, the samples were washed again in Tris buffer 0.05 M and the immunoreactivity was visualized through light microscopy with a chromogenic solution containing 3,3'-Diaminobenzidine (DAB+; Dako, USA). To differentiate the cell nuclei, they were slightly stained with hematoxylin. As negative control, it was used samples not incubated with the primary antibody anti-NK1, which was replaced by non-immune serum. All the samples were evaluated.
(§6) To value the immunostaining in each of the cases six cuts were performed to be analyzed by the immunohistochemistry technique. In each of the six cuts, it was counted cells in 20 fields (magnification 400x) using an Olympus microscope (model CX31). In each field it was counted the total number of cells and the number of cells presenting immunostaining, calculating afterwards the percentage of cells which presented immunostaining.

[3] = system: Leukemia B; experiment: as above; format: cell-based; conditions: Homo sapiens, 1 micromolar, read-out: Percentage of inhibition of cell cultures
Protocol: as §1, §5, §6

[4] = system: human primary tumor cells; experiment: Inhibition of primary tumor cell cultures vs absence or presence of AKT protein (Example 4; tumor type per table line); format: cell-based; conditions: cancer cell cultures showing more presence of AKT, compared; non-peptidic antagonists 100 micromolar, antibody 1/50
Protocol: (§7) Cell cultures. […] Briefly, small pieces of the tumors were digested into a hyaluronidase solution (Sigma-Aldrich, USA) at a concentration of 1 mg/ml during 15 minutes at 37°C, and then they were treated with 6 mg/ml of collagenase type IV (Invitrogen) during 2 hours at 37°C. Consecutively, cells were washed, and resuspended in the DMEM culture medium with high concentration of glucose (Dulbecco's Modified Eagle's Medium, Invitrogen) supplemented with 1% of antibiotics-antimycotics (Invitrogen) and with 1% of sodium pyruvate (Invitrogen), and the cells were seeded in culture slides at a concentration of 10.000 cells per square centimeter. When cells reached confluence, the adherent cells were separated using sterile trypsin at 0,5% (Invitrogen) and they were used among passages 3 and 9. For the assays shown next, tumor cells were seeded on slides at a concentration of 25.000 cells per well. A total of 6 wells containing the tumor cells were used as survival control. […] All the cultures were kept during 48 hours and later on recollected for their analysis.
Afterwards, the cells were cultured in presence of several antagonists of the NK1 receptor.
In each case it was determined the presence or absence of the AKT protein effector downstream in the PI3 Kinases pathway.
To determine the presence of the AKT protein in the different cultures Western Blot technique was performed (following the description in example 1-Western Blot section), but using as primary antibody with reference: Akt (pan) (11E7) Rabbit mAb (4685, Cell Signalling).
The antibody against NK1 receptor (Table 26) was used at 1/50 concentration. The percentages of inhibition are expressed in percentage of variation in relation to control ± standard deviation.

[5] = system: Breast carcinoma (ductal adenocarcinoma); experiment: Inhibition of primary tumor cell cultures vs Kras mutation (Example 2); format: cell-based, human; conditions: Homo sapiens, 100 micromolar, read-out: Percentage of inhibition of cell cultures
Protocol: as §7, §2, §3
(§8) The antibody against NK1 receptor (Table 16) was used at 1/50 concentration. The percentages of inhibition are expressed in percentage of variation in relation to control ± standard deviation.

[6] = system: Lung carcinoma (small cell lung carcinoma); experiment: as above; format: cell-based, human; conditions: Homo sapiens, 100 micromolar, read-out: Percentage of inhibition of cell cultures
Protocol: To obtain tumor cells from human primary tumors we used the method described in De Bari et al. (De Bari et al. 2001). Briefly, small pieces of the tumors were digested into a hyaluronidase solution (Sigma-Aldrich, USA) at a concentration of 1 mg/ml during 15 minutes at 37°C, and then they were treated with 6 mg/ml of collagenase type IV (Invitrogen) during 2 hours at 37°C. Consecutively, cells were washed, and resuspended in the DMEM culture medium with high concentration of glucose (Dulbecco's Modified Eagle's Medium, Invitrogen) supplemented with 1% of antibiotics-antimycotics (Invitrogen) and with 1% of sodium pyruvate (Invitrogen), and the cells were seeded in culture slides at a concentration of 10.000 cells per square centimeter. When cells reached confluence, the adherent cells were separated using sterile trypsin at 0,5% (Invitrogen) and they were used among passages 3 and 9. For the assays shown next, tumor cells were seeded on slides at a concentration of 25.000 cells per well. A total of 6 wells containing the tumor cells were used as survival control. […] All the cultures were kept during 48 hours and later on recollected for their analysis.
as §2, §3, §8

[7] = system: Non Hodgkin Lymphoma B (diffuse B cell lymphoma); experiment: as above; format: cell-based, human; conditions: Homo sapiens, B-cell, 100 micromolar, read-out: Percentage of inhibition of cell cultures
Protocol: as §1, §2, §3, §4

[8] = system: Endometrium carcinoma; experiment: cells; conditions: Homo sapiens, 1 micromolar
Protocol: as §1, §5, §6

[9] = system: Glioma; experiment: Inhibition of primary tumor cell cultures (48 hours) vs NK1 receptor immunostaining (Example 1); format: cell-based; conditions: Homo sapiens, 1 micromolar, read-out: Percentage of inhibition of cell cultures
Protocol: as §1, §5, §6

[10] = system: Lung carcinoma (small cell type); experiment: as above; format: cell-based; conditions: Homo sapiens, 1 micromolar, read-out: Percentage of inhibition of cell cultures
Protocol: as §1, §5, §6

[11] = system: Burkitt Lymphoma; experiment: Inhibition of primary tumor cell cultures vs Kras mutation (Example 2); format: cell-based, human; conditions: Homo sapiens, 100 micromolar, read-out: Percentage of inhibition of cell cultures
Protocol: as §1, §2, §3, §8

[12] = system: Fibrosarcoma; experiment: Inhibition of primary tumor cell cultures (48 hours) vs NK1 receptor immunostaining (Example 1); format: cell-based; conditions: Homo sapiens, 1 micromolar, read-out: Percentage of inhibition of cell cultures
Protocol: as §1, §5, §6

[13] = system: Thyroid carcinoma (papillary type); experiment: as above; format: cell-based; conditions: Homo sapiens, 1 micromolar, read-out: Percentage of inhibition of cell cultures
Protocol: as §1, §5, §6

[14] = system: Hodgkin lymphoma; experiment: as above; format: cell-based; conditions: Homo sapiens, 1 micromolar, read-out: Percentage of inhibition of cell cultures
Protocol: as §1, §5, §6

[15] = system: human primary tumor cells; experiment: Inhibition of primary tumor cell cultures vs absence or presence of ERK  protein (Example 3; tumor type per table line); format: cell-based; conditions: 100 micromolar
Protocol: as §7
Consecutively, the cells were placed in cultures in the presence of several antagonists of the NK1 receptor.
In each case it was determined the presence or absence of the downstream effector in the MAP Kinases ERK pathway.
To determine the presence of the ERK protein, it was performed a Western Blot technique, using as primary antibody: Phospho-p44/42 MAPK (Erk1/2) (Thr202/Tyr204) (D13.14.4E) XP® Rabbit mAb (4370, Cell Signalling). To determine the presence of the MEK protein, it was performed the Western Blot technique, using as primary antibody Phospho-MEK1/2 (Ser217/221) (9121, Cell Signalling).
The antibody against NK1 receptor (Table 21) was used at 1/50 concentration. The percentages of inhibition are expressed in percentages of variation in relation to control ± standard deviation.

[16] = Cases with Kras non-mutated (wild type)
[17] = NK1 receptor immunostaining Group 1 (less than 20% of the cells)
[18] = NK1 receptor immunostaining Group 2 (20-80% of the cells)
[19] = NK1 receptor immunostaining Group 3 (more than 80% of the cells)
[20] = NK1 receptor immunostaining Intensity grade 1
[21] = NK1 receptor immunostaining Intensity grade 2
[22] = NK1 receptor immunostaining Intensity grade 3

`CC(=O)N1CCN([C@H]2CCN(C(=O)N(C)[C@H](C)c3cc(C(F)(F)F)cc(C(F)(F)F)c3)[C@@H](c3ccc(F)cc3C)C2)CC1` [Casopitant] gave an inhibition at 100 µM ([1]; Cases with Kras mutated) of 25 ± 6%, an inhibition at 100 µM [1, 16] of 94 ± 6% and an inhibition at 1 µM [2, 17] of 15 ± 3%. It also gave an inhibition at 1 µM [2, 18] of 46 ± 5%, an inhibition at 1 µM [2, 19] of 94 ± 5% and an inhibition at 1 µM [2, 20] of 37 ± 5%. For the same molecule, the inhibition at 1 µM [2, 21] was 55 ± 3%, the inhibition at 1 µM [2, 22] was 93 ± 3% and the inhibition at 1 µM [3, 17] was 17 ± 3%. The inhibition at 1 µM [3, 18] was 46 ± 5%, the inhibition at 1 µM [3, 19] was 94 ± 6% and the inhibition at 1 µM [3, 20] was 36 ± 3%. For the same molecule, the inhibition at 1 µM [3, 21] was 52 ± 3%, the inhibition at 1 µM [3, 22] was 92 ± 5% and the “inhibition of cell proliferation” value [4] was “higher inhibition”. The inhibition at 100 µM ([5]; Cases with Kras mutated) was 28 ± 6%, the inhibition at 100 µM [5, 16] was 96 ± 4% and the inhibition at 100 µM ([6]; Cases with Kras mutated) was 26 ± 4%. It also gave an inhibition at 100 µM [6, 16] of 94 ± 2%, an inhibition at 100 µM ([7]; Cases with Kras mutated) of 26 ± 3% and an inhibition at 100 µM [7, 16] of 95 ± 4%. It also gave an inhibition at 1 µM ([8]; read-out: Percentage of inhibition of cell cultures, NK1 receptor immunostaining Group 1 (less than 20% of the cells)) of 16 ± 3%, an inhibition at 1 µM ([8]; read-out: Percentage of inhibition of cell cultures, NK1 receptor immunostaining Group 2 (20-80% of the cells)) of 46 ± 3% and an inhibition at 1 µM ([8]; read-out: Percentage of inhibition of cell cultures, NK1 receptor immunostaining Group 3 (more than 80% of the cells)) of 92 ± 3%. It also gave an inhibition at 1 µM ([8]; read-out: Percentage of inhibition of cell cultures, NK1 receptor immunostaining Intensity grade 1) of 34 ± 5%, an inhibition at 1 µM ([8]; read-out: Percentage of inhibition of cell cultures, NK1 receptor immunostaining Intensity grade 2) of 55 ± 5% and an inhibition at 1 µM ([8]; read-out: Percentage of inhibition of cell cultures, NK1 receptor immunostaining Intensity grade 3) of 94 ± 4%. The inhibition at 1 µM [9, 17] was 16 ± 3%, the inhibition at 1 µM [9, 18] was 46 ± 4% and the inhibition at 1 µM [9, 19] was 93 ± 5%. For the same molecule, the inhibition at 1 µM [9, 20] was 36 ± 3%, the inhibition at 1 µM [9, 21] was 54 ± 5% and the inhibition at 1 µM [9, 22] was 91 ± 3%. It also gave an inhibition at 1 µM [10, 17] of 12 ± 2%, an inhibition at 1 µM [10, 18] of 45 ± 2% and an inhibition at 1 µM [10, 19] of 93 ± 4%. It also gave an inhibition at 1 µM [10, 20] of 33 ± 2%, an inhibition at 1 µM [10, 21] of 55 ± 3% and an inhibition at 1 µM [10, 22] of 94 ± 4%. For the same molecule, the inhibition at 100 µM ([11]; Cases with Kras mutated) was 25 ± 2%, the inhibition at 100 µM [11, 16] was 92 ± 5% and the inhibition at 1 µM [12, 17] was 15 ± 2%. For the same molecule, the inhibition at 1 µM [12, 18] was 47 ± 5%, the inhibition at 1 µM [12, 19] was 93 ± 4% and the inhibition at 1 µM [12, 20] was 35 ± 6%. The inhibition at 1 µM [12, 21] was 55 ± 3%, the inhibition at 1 µM [12, 22] was 92 ± 4% and the inhibition at 1 µM [13, 17] was 16 ± 2%. It also gave an inhibition at 1 µM [13, 18] of 44 ± 2%, an inhibition at 1 µM [13, 19] of 95 ± 5% and an inhibition at 1 µM [13, 20] of 35 ± 4%. For the same molecule, the inhibition at 1 µM [13, 21] was 55 ± 6%, the inhibition at 1 µM [13, 22] was 92 ± 3% and the inhibition at 1 µM [14, 17] was 15 ± 2%. The inhibition at 1 µM [14, 18] was 47 ± 4%, the inhibition at 1 µM [14, 19] was 95 ± 4% and the inhibition at 1 µM [14, 20] was 34 ± 5%. For the same molecule, the inhibition at 1 µM [14, 21] was 54 ± 4%, the inhibition at 1 µM [14, 22] was 92 ± 4% and the “Percentage of inhibition of cell cultures” value ([15]; Breast carcinoma (ductal adenocarcinoma), cases with presence of ERK) was 93±4 percentage. For the same molecule, the “Percentage of inhibition of cell cultures” value ([15]; Breast carcinoma (ductal adenocarcinoma), cases without presence of ERK) was 26±4 percentage, the “Percentage of inhibition of cell cultures” value ([15]; Burkitt Lymphoma, cases with presence of ERK) was 97±5 percentage and the “Percentage of inhibition of cell cultures” value ([15]; Burkitt Lymphoma, cases without presence of ERK) was 28±6 percentage. The “Percentage of inhibition of cell cultures” value ([15]; Carcinoma of the uterine cervix (Squamous cell carcinoma), cases with presence of ERK) was 93±4 percentage, the “Percentage of inhibition of cell cultures” value ([15]; Carcinoma of the uterine cervix (Squamous cell carcinoma), cases without presence of ERK) was 28±3 percentage and the “Percentage of inhibition of cell cultures” value ([15]; Colon carcinoma (Adenocarcinoma), cases with presence of ERK) was 95±3 percentage.
